The text below walks through data of paper PMC4620497 (Scientific Reports, 2015).

The subject of assay [1] is FLT3. The settings on record: previously identified FLT3 inhibitor; read-out: IC50 against FLT3; cited from earlier work.
In another assay the target is T1, CSK (Homo sapiens, UniProt P41240).
T1 construct: purchased DiscoveRx KINOMEscan (Ambit Biosciences)
The assay is described as follows: KINOMEscan panel screen. The assay is classed as binding. The conditions noted are these: read-out: Percent Control(%).

The next assay concerns the target T2, EPHA1 (Homo sapiens, UniProt P21709).
T2 construct: purchased DiscoveRx KINOMEscan (Ambit Biosciences)
The assay is described as follows: KINOMEscan panel screen. The assay is classed as binding. The conditions noted are these: read-out: Percent Control(%).

The target of a further assay is T3, NDR2 (Homo sapiens, UniProt Q9Y2H1).
T3 construct: purchased DiscoveRx KINOMEscan (Ambit Biosciences)
Briefly: KINOMEscan panel screen. The settings on record: read-out: Percent Control(%). The assay is classed as binding.

The next assay deals with T4, SNARK (Homo sapiens, UniProt Q9H093).
T4 construct: purchased DiscoveRx KINOMEscan (Ambit Biosciences)
The assay is described as follows: KINOMEscan panel screen. Format: binding. The conditions noted are these: read-out: Percent Control(%).

Another assay addresses T5, AKT2 (Homo sapiens, UniProt P31751).
T5 construct: purchased DiscoveRx KINOMEscan (Ambit Biosciences)
Briefly: KINOMEscan panel screen. The assay is classed as binding. The settings on record: read-out: Percent Control(%).

The next assay concerns the target T6, NEK11 (Homo sapiens, UniProt Q8NG66).
T6 construct: purchased DiscoveRx KINOMEscan (Ambit Biosciences)
The assay is described as follows: KINOMEscan panel screen. Format: binding. The settings on record: read-out: Percent Control(%).

The next assay concerns the target T7, PDGFRB (Homo sapiens, UniProt P09619).
T7 construct: purchased DiscoveRx KINOMEscan (Ambit Biosciences)
Briefly: KINOMEscan panel screen. Format: binding. The settings on record: read-out: Percent Control(%).

The target in assay [2] is T8, ABL1(F317I)-phosphorylated (Homo sapiens, UniProt P00519, F317I).
T8 construct: purchased DiscoveRx KINOMEscan (Ambit Biosciences)
Briefly: KINOMEscan panel screen. Format: binding. The conditions noted are these: read-out: Percent Control(%).

The target of a further assay is T9, PLK4 (Homo sapiens, UniProt O00444).
T9 construct: purchased DiscoveRx KINOMEscan (Ambit Biosciences)
Briefly: KINOMEscan panel screen. The assay is classed as binding. The settings on record: read-out: Percent Control(%).

Assay [3] has as its target T10, RPS6KA4(Kin.Dom.2-C-terminal) (Homo sapiens, UniProt O75676).
T10 construct: RPS6KA4(Kin.Dom.2-C-terminal); purchased DiscoveRx KINOMEscan (Ambit Biosciences)
The assay is described as follows: KINOMEscan panel screen. Format: binding. The settings on record: read-out: Percent Control(%).

For another assay, the target named is T11, DLK (Homo sapiens, UniProt Q12852).
T11 sequence (Q12852 1-859): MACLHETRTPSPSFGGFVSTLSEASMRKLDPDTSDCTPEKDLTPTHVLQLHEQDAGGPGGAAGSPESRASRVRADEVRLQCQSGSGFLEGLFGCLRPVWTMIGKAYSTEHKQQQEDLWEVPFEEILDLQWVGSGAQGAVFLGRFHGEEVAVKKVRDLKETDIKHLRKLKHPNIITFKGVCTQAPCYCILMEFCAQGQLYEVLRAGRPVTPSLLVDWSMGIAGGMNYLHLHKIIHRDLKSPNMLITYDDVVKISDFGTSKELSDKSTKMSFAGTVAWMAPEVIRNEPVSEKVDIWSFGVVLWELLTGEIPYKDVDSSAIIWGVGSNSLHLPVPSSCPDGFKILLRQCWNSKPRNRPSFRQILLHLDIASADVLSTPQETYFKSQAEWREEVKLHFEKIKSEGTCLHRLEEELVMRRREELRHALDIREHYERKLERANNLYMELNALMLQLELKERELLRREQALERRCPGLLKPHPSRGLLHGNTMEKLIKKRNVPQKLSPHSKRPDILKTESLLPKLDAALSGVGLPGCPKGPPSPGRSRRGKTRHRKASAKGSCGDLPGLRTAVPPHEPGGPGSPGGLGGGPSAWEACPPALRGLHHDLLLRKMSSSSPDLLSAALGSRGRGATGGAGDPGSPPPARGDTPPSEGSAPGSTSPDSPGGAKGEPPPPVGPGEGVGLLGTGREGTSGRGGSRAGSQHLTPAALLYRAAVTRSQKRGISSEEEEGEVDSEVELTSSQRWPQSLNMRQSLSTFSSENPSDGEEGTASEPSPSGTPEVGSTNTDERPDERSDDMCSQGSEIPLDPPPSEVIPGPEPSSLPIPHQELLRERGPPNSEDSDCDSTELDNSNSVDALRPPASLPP
The assay is described as follows: KINOMEscan panel screen. Format: binding. The settings on record: read-out: Percent Control(%).

In the next assay the target is T12, ACVR1B (Homo sapiens, UniProt P36896).
T12 construct: purchased DiscoveRx KINOMEscan (Ambit Biosciences)
The assay is described as follows: KINOMEscan panel screen. Format: binding. The settings on record: read-out: Percent Control(%).

In the next assay the target is T13, BRSK1 (Homo sapiens, UniProt Q8TDC3).
T13 construct: purchased DiscoveRx KINOMEscan (Ambit Biosciences)
The assay is described as follows: KINOMEscan panel screen. Format: binding. The conditions noted are these: read-out: Percent Control(%).

A further assay deals with T14, MELK (Homo sapiens, UniProt Q14680).
T14 construct: purchased DiscoveRx KINOMEscan (Ambit Biosciences)
The assay is described as follows: KINOMEscan panel screen. The assay is classed as binding. The settings on record: read-out: Percent Control(%).

Assay [4] has as its target T15, FLT3 (Homo sapiens, UniProt P36888).
T15 construct: purchased DiscoveRx KINOMEscan (Ambit Biosciences)
Briefly: KINOMEscan panel screen. The assay is classed as binding. The conditions noted are these: read-out: Percent Control(%).

For a further assay, the target named is T16, MAP3K2 (Homo sapiens, UniProt Q9Y2U5).
T16 construct: purchased DiscoveRx KINOMEscan (Ambit Biosciences)
Briefly: KINOMEscan panel screen. Format: binding. The conditions noted are these: read-out: Percent Control(%).

The target in the next assay is T17, PDGFRα (Homo sapiens, UniProt P16234).
T17 construct: purchased Ambit Biosciences (KINOMEscan)
Briefly: KINOMEscan kinase binding assay (Kd).

Assay [5] deals with MV4-11 bone marrow transplant. Briefly: MV4-11 bone marrow engraftment model. Format: in vivo, NOD-SCID mice. The settings on record: for mean survival time (MST): vehicle 51 days. The protocol: Finally, the influence of SKLB-677 on survival time was examined using a bone marrow (BM) transplant model of MV4-11. In the vehicle control group, the mean survival time (MST) was 51 days, with all animals expired by day 58.
NOD-SCID mice were pretreated with cyclophosphamide by intraperitoneal injection of 150 mg/kg/d for 2 days. Following a 24-hour rest period, the mice were intravenously injected with 8 × 10^6 MV4-11 cells per mouse via the tail vein. From the day 21 after inoculation, SKLB-677 or vehicle was administered orally once a day for 30 days.
Supplementary Figure S9. NOD- SC ID mice were intravenousl y inject ed with 8×10^6 MV4-11 cells per mouse via the tail vein. Oral administration of S K LB -677 at 10 mg/kg/d was initiated on day 21 after the inoculati on. Mouse ( 3mice per group) thigh femurs were collected for immunohistochemical Ki67 anal ysis after 6 d a ys of […]
regression of bone marrow tumor. Scale bar, 100μm.
(1 picture or pasted object on this page, not shown here)

For a further assay, the target named is T18, JNK2 (Homo sapiens, UniProt P45984).
T18 construct: purchased DiscoveRx KINOMEscan (Ambit Biosciences)
Briefly: KINOMEscan panel screen. The assay is classed as binding. The settings on record: read-out: Percent Control(%).

The target in another assay is T19, FGFR1 (Homo sapiens, UniProt P11362).
T19 construct: purchased DiscoveRx KINOMEscan (Ambit Biosciences)
The assay is described as follows: KINOMEscan kinase binding assay (Kd).

For another assay, the target named is T20, TRKA (Homo sapiens, UniProt P04629).
T20 construct: purchased DiscoveRx KINOMEscan (Ambit Biosciences)
The assay is described as follows: KINOMEscan panel screen. The settings on record: read-out: Percent Control(%). Format: binding.

Another assay addresses T21, HIPK4 (Homo sapiens, UniProt Q8NE63).
T21 construct: purchased DiscoveRx KINOMEscan (Ambit Biosciences)
The assay is described as follows: KINOMEscan panel screen. The assay is classed as binding. The settings on record: read-out: Percent Control(%).

A further assay concerns the target T22, PLK2 (Homo sapiens, UniProt Q9NYY3).
T22 construct: purchased DiscoveRx KINOMEscan (Ambit Biosciences)
The assay is described as follows: KINOMEscan kinase binding assay (Kd).

Another assay addresses T23, MINK (Homo sapiens, UniProt Q8N4C8).
T23 construct: purchased DiscoveRx KINOMEscan (Ambit Biosciences)
Briefly: KINOMEscan panel screen. Format: binding. The conditions noted are these: read-out: Percent Control(%).

T8 sequence (P00519 229-512 F317I limits assumed): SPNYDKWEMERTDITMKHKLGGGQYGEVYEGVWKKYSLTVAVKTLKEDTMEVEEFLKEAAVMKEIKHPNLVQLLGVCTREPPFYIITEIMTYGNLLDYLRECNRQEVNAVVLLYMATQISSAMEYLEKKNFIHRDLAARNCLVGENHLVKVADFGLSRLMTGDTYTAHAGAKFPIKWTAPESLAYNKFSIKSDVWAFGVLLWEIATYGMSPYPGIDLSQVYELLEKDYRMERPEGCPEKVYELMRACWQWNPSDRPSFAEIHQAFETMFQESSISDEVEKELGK
T21 sequence (Q8NE63 whole entry): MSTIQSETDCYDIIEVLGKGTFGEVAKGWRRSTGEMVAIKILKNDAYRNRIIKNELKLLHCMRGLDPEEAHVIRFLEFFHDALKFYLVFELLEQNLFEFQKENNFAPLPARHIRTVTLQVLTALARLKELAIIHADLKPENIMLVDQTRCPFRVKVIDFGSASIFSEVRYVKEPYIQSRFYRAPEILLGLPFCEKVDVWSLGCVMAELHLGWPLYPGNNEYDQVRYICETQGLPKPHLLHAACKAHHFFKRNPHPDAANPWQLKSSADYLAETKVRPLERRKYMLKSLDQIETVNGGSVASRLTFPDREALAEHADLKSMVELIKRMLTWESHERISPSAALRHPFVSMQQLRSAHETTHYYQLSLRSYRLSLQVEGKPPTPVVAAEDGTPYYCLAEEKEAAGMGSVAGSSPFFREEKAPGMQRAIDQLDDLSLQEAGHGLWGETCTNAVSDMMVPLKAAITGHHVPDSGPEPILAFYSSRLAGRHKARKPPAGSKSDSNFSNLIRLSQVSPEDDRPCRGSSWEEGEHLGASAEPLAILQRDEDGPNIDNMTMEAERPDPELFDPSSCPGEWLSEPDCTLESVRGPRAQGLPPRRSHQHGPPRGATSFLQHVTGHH
T6 sequence (Q8NG66 whole entry): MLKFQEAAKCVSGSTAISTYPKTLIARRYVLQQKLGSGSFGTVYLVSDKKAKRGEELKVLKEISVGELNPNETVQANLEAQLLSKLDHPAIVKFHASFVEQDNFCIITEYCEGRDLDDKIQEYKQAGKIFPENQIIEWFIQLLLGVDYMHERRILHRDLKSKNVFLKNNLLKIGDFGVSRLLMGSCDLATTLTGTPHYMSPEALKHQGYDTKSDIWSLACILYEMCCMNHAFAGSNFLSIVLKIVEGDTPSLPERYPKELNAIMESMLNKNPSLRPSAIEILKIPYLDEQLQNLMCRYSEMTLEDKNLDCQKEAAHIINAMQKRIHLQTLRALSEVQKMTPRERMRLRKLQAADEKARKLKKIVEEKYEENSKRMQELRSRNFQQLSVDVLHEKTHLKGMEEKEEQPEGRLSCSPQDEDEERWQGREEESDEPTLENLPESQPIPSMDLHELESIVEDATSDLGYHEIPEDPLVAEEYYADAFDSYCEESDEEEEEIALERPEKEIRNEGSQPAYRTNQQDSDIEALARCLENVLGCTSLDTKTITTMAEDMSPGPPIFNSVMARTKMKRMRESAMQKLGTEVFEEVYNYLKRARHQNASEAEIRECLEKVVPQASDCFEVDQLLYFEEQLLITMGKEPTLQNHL
T22 sequence (Q9NYY3 whole entry): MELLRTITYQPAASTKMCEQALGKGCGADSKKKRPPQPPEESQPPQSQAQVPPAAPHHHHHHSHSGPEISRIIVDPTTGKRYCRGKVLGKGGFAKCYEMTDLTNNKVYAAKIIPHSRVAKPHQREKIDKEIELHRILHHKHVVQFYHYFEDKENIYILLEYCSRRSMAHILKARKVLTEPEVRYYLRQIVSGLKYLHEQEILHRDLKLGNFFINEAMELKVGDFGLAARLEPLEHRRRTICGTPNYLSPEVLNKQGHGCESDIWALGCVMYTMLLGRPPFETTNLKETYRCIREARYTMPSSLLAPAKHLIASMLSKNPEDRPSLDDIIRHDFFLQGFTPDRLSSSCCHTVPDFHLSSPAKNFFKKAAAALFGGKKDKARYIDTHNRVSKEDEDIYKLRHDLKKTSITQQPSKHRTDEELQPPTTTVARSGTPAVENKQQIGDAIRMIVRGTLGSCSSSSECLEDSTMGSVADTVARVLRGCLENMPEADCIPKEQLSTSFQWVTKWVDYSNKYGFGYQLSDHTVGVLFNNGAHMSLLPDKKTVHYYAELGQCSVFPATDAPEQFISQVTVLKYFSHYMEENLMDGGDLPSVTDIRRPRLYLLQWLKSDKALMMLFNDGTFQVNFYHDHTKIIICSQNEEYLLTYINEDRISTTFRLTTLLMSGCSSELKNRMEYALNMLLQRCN
T12 sequence (P36896 24-505): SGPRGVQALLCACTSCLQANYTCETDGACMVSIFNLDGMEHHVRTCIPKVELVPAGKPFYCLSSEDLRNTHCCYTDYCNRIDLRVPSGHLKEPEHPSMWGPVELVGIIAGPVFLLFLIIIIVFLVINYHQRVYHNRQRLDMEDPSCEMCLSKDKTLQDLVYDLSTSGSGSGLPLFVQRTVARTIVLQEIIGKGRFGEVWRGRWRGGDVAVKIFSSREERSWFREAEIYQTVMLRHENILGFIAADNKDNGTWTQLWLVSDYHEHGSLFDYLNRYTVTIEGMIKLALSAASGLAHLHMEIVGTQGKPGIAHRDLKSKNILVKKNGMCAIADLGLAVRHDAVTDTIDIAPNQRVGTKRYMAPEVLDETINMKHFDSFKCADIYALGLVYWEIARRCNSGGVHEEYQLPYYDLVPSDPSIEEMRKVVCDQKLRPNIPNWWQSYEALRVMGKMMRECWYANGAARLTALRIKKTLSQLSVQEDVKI
T5 sequence (P31751 whole entry): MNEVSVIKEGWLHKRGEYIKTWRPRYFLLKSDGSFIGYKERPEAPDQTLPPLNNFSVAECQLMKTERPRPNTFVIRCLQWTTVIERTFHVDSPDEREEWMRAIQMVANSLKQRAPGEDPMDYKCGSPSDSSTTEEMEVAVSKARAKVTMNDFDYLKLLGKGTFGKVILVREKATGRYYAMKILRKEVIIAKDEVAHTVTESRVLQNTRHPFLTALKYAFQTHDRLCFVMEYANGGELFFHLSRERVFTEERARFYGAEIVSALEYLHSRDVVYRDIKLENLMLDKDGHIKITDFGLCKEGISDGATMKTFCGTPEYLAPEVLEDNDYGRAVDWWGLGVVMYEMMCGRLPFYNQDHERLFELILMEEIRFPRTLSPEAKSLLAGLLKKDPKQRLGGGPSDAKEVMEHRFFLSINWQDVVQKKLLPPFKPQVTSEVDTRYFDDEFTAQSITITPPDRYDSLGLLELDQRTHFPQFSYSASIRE
T20 sequence (P04629 33-796): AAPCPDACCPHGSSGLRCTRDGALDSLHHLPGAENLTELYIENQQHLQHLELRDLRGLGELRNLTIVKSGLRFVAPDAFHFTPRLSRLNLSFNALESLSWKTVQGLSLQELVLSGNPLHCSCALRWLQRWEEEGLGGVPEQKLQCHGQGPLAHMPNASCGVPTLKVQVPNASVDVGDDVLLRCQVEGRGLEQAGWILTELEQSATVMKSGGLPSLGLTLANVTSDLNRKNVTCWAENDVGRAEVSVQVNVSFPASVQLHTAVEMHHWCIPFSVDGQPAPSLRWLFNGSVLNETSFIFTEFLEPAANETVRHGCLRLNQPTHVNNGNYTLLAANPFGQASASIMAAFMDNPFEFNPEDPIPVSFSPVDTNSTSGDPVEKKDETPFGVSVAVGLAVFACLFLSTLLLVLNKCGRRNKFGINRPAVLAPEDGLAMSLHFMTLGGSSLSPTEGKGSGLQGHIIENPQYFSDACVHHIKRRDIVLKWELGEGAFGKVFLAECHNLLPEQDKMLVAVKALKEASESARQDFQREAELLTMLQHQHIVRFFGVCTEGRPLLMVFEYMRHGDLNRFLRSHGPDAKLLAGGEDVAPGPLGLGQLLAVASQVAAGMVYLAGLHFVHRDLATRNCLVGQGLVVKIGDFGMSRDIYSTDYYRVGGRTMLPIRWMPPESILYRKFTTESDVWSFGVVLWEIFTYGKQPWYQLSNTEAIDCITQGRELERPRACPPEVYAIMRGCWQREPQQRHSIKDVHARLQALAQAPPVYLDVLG
T17 sequence (P16234 24-1089): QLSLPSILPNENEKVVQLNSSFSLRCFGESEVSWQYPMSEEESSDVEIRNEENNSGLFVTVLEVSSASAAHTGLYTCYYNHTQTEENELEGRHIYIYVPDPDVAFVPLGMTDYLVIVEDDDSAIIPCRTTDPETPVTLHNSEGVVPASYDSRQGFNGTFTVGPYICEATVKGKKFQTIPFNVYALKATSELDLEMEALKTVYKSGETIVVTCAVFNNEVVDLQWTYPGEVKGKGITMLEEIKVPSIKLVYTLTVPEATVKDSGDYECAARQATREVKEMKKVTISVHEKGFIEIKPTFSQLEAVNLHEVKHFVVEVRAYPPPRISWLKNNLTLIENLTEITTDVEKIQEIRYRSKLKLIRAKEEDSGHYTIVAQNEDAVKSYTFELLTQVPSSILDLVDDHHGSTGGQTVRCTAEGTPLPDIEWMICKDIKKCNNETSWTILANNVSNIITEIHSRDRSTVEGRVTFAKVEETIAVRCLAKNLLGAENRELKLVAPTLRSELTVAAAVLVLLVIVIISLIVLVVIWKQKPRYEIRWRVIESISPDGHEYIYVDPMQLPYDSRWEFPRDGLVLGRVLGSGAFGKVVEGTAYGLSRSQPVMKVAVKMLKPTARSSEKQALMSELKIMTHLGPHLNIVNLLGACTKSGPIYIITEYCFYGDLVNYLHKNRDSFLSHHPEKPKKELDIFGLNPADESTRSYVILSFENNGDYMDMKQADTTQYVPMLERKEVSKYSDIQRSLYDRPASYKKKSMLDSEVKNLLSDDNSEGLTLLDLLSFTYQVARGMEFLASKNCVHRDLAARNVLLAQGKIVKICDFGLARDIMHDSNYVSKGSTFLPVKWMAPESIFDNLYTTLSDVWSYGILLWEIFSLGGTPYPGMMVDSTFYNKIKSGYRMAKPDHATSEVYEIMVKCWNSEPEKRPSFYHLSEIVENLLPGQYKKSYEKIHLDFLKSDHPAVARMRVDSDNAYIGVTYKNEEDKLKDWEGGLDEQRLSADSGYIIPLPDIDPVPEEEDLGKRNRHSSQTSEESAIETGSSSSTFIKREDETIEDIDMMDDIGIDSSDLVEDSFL

With `O=C(Nc1ccc(Oc2ncnc3[nH]ncc23)cc1)Nc1ccc(Cl)c(C(F)(F)F)c1` [Compound 1, 1-(4-(1H-pyrazolo[3,4-d]pyrimidin-4-yloxy)phenyl)-3-(4-chloro-3-(trifluoromethyl)phenyl)urea], in the assay with FLT3 [1], the IC50 is 0.039 µM.

Regarding `CC(C)(C)c1cc(NC(=O)Nc2ccc(Oc3ncnc4[nH]ncc34)c(F)c2)no1` [SKLB-677, 1-(4-(1H-pyrazolo[3,4-d]pyrimidin-4-yloxy)-3-fluorophenyl)-3-(5-tert-butylisoxazol-3-yl)urea], the remaining binding at 10 µM on CSK stood at 76%; on EPHA1, 9.2%; at NDR2 it was 56%; at SNARK, 66%; on AKT2 it was 100%; at NEK11, 96%. The remaining binding at 10 µM amounted to 0% at PDGFRB; 43% in assay [2]; 68% on PLK4; 78% in assay [3]; 86% at DLK; 100% on ACVR1B. Also, the remaining binding at 10 µM at BRSK1 was found to be 85%; on MELK it was 56%; on FLT3 [4] it was 2%; at MAP3K2 it was 100%; on JNK2 it was 2%; at TRKA it was 7.8%. For the same molecule, the remaining binding at 10 µM at HIPK4 turned out to be 0.45%; on MINK, 2.3%. For the same molecule, the values for the Kd at PDGFRα, at FGFR1 and at PLK2 were 0.012 µM, 0.6 µM and more than 10 µM, respectively. Further, the “mean survival time (MST)” value in [5] (3 mg/kg/day orally for 30 days) turned out to be 66 days; in assay [5] (10 mg/kg/day orally for 30 days), 78.5 days; in [5] (30 mg/kg/day orally for 30 days) it was 85.5 days. Also, the “number of Ki67-positive cells in femur BM” value in assay [5] (10 mg/kg/d for 6 days) was “obviously decreased”.
